Drawing on patent publication US20260116889A1, “MACROCYCLIC PYRIMIDINE DERIVATIVE, METHOD FOR PREPARING SAME, AND PHARMACEUTICAL COMPOSITION FOR PREVENTION OR TREATMENT OF NEURODEGENERATIVE DISEASE CONTAINING SAME AS ACTIVE INGREDIENT” (WHAN IN PHARMACEUTICAL CO., LTD., priority 2021, published 2026), this text covers IC50 and Kp for 5 compounds.

Data set [1] addresses T1, wild type LRRK2 (leucine-rich repeat kinase 2) (Homo sapiens, UniProt Q5S007).
T1 construct: purchased Reaction Biology Corporation
Kind of data set: HotSpot radiometric kinase assay (Reaction Biology), LRRK2 wild type inhibitory activity. The note with it: 10 μM ATP, 25° C., 120 min. The data set is classed as biochemical. The procedure:
(§1) The experimental method was as follows.
(§2) Specific kinase/substrate pairs were prepared in reaction buffer (20 mM Hepes pH 7.5, 10 mM MgCl2, 1 mM EGTA, 0.02% Brij35, 0.02 mg/ml BSA, 0.1 mM Na3VO4, 2 mM DTT, 1% DMSO) along with the required cofactors. The compounds were transferred to the reaction, and after 20 min, a mixture of ATP (Sigma) and ^33P ATP (PerkinElmer) was added to a final concentration of 10 μM. The reaction was carried out at 25° C. for 120 min and then dropped onto P81 ion exchange filter paper (Whatman). […] IC50 values were obtained using Prism (GraphPad Software).

Data set [2] addresses T2, G2019S mutant of LRRK2 (leucine-rich repeat kinase 2) (Homo sapiens, UniProt Q5S007, G2019S).
T2 construct: purchased Reaction Biology Corporation
Nature of the data set: HotSpot radiometric kinase assay (Reaction Biology), LRRK2 G2019S mutant inhibitory activity. The data set is classed as biochemical. The following applies: 10 μM ATP, 25° C., 120 min. On the procedure: as §1, §2

A short description of data set [3]: Blood-brain barrier (BBB) permeability after oral administration, plasma and brain by LC-MS/MS. The data set is classed as in vivo. The following applies: 5 mg/kg oral administration; plasma and brain tissue at 1 and 3 hours. On the procedure:
To evaluate the blood-brain barrier permeability, the following experiment was conducted.
The test substance was prepared at a dosage of 5 mg/kg, and after oral administration, the animals were sacrificed at 1 and 3 hours, and blood was collected from the heart and centrifuged to prepare plasma samples. To remove the remaining blood in the body, the brain was removed after cardiac perfusion using 20 ml of saline containing 10 U/ml heparin. The brain tissue was homogenized by adding 3 times the weight of PBS buffer. LC-MS/MS (Agilent, Santa Clara, CA, USA) was used for quantitative analysis of the prepared plasma and brain tissue. The separation of substances in LC used a mobile phase consisting of 20% water with 80% acetonitrile and 0.1% formic acid. The total run time per substance was 3 minutes, and the flow rate was 0.3 ml/min.

T2 sequence (Q5S007 whole entry G2019S): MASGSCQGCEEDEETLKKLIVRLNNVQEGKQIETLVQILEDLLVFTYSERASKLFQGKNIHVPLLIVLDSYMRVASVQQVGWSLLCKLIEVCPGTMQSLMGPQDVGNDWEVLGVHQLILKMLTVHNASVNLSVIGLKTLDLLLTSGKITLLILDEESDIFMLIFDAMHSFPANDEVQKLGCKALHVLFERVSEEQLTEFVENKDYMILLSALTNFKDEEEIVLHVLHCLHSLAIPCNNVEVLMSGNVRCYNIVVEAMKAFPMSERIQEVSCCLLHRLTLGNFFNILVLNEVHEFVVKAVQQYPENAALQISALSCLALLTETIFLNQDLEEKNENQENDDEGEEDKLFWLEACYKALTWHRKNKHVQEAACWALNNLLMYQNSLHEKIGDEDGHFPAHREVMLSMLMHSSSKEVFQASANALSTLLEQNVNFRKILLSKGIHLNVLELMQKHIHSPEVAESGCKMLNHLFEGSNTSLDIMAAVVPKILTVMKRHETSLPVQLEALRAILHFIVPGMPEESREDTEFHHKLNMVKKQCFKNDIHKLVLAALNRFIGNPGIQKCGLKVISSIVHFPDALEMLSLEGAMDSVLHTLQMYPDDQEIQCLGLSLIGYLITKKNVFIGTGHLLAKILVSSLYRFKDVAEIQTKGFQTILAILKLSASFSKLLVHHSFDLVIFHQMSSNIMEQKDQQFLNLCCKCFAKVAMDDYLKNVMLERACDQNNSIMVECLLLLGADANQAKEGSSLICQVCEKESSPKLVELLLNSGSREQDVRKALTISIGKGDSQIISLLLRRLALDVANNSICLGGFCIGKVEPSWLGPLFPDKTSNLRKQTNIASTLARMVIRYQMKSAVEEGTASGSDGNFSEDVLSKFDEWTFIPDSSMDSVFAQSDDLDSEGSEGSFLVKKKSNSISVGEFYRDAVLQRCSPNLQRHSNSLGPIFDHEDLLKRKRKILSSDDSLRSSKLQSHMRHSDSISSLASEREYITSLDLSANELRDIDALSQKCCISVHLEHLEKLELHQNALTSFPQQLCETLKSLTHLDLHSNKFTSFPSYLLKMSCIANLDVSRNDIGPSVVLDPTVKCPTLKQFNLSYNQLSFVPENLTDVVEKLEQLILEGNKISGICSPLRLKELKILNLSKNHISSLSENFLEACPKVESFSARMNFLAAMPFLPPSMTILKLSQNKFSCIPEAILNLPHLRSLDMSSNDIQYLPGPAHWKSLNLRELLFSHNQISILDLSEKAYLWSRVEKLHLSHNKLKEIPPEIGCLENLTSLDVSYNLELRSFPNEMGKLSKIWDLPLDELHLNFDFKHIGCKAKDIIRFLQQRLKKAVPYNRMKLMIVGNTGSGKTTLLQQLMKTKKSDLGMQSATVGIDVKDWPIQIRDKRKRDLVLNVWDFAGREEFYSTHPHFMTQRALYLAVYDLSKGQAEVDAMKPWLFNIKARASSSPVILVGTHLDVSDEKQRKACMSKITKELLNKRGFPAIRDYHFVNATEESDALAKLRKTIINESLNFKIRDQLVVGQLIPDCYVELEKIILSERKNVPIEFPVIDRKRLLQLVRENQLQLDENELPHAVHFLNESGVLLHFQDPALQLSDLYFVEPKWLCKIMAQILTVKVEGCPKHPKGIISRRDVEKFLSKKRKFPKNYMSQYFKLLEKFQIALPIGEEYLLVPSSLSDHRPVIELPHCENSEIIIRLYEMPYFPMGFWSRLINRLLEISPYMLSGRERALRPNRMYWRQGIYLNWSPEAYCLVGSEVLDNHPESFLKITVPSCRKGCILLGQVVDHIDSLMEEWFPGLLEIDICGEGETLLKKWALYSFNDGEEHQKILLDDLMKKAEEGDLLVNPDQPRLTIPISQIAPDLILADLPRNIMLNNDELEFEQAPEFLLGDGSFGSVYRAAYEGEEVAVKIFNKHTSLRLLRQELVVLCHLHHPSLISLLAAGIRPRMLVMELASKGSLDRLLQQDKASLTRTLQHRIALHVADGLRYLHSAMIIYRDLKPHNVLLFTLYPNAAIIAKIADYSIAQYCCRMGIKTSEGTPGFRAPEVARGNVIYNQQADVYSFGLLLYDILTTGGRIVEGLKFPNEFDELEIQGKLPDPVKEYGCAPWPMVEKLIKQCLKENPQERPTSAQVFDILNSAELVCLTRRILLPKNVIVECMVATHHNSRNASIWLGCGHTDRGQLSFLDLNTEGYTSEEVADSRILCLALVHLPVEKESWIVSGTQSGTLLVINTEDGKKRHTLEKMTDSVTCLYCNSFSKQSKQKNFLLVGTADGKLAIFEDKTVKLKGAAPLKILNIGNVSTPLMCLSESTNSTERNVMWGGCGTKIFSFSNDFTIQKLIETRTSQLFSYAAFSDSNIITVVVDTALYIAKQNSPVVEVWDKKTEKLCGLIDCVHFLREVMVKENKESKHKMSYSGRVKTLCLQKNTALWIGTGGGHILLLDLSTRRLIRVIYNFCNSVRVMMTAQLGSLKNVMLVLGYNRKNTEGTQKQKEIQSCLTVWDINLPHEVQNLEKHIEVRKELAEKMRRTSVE
T1 sequence (Q5S007 whole entry): as the sequence (Q5S007 whole entry G2019S) above, with S2019G counted along it

By IC50 is commonly meant the point on the concentration scale where inhibition reaches its midpoint. Usually Kp stands for tissue or fluid exposure divided by exposure in the circulation. Take `COc1cc2cc(c1)C(=O)N(C)CCNc1nc(ncc1Cl)N2` [Example 10, 1^5-chloro-3^5-methoxy-5-methyl-2,5,8-triaza-1 (2,4)-pyrimidina-3 (1,3)-benzenacyclooctaphane-4-one;2,2,2-trifluoroacetate]: the 50% inhibitory concentration (IC50) in data set [1] was found to be 15.8 nM; in data set [2], 16 nM. This compound also returned a Kp in data set [3] of 0.09.

Consider `COc1ccc2cc1C(=O)N(C)CCCNc1nc(ncc1Cl)N2` [Example 15, 1^5-chloro-3^4-methoxy-5-methyl-2,5,9-triaza-1 (2,4)-pyrimidina-3 (1,3)-benzenacyclononapane-4-one;2,2,2-trifluoroacetate], for which the IC50 was 26.6 nM in data set [1] and 23.3 nM in data set [2]. In data set [3], this compound gave a Kp of 0.11.

In the case of `COc1ccc2cc1Nc1ncc(Cl)c(n1)NCCN(C)C2=O` [Example 6, 1^5-chloro-3^6-methoxy-5-methyl-2,5,8-triaza-1 (2,4)-pyrimidina-3 (1,3)-benzenacyclooctaphane-4-one;2,2,2-trifluoroacetate], the IC50 in data set [1] stood at 1.87 nM; in data set [2], 4 nM. The same compound gave a Kp in data set [3] of 0.06.

On to `CCc1ccc2cc1Nc1ncc(Cl)c(n1)NCCCN(C)C2=O` [Example 13, 1^5-chloro-3^6-ethyl-5-methyl-2,5,9-triaza-1 (2,4)-pyrimidina-3 (1,3)-benzenacyclononapane-4-one;2,2,2-trifluoroacetate], for which the half-inhibitory concentration (IC50) worked out at 4.98 nM in data set [1] and 4.94 nM in data set [2]. Further, the Kp in data set [3] was 0.12.

Take `COc1ccc2cc1Nc1ncc(Cl)c(n1)NCCCCN(C)C2=O` [Example 16, 1^5-chloro-3^6-methoxy-5-methyl-2,5,10-triaza-1 (2,4)-pyrimidina-3 (1,3)-benzenacyclodecarphane-4-one;2,2,2-trifluoroacetate]: the IC50 is 6.62 nM in data set [1] and 7.12 nM in data set [2]. This compound also showed a Kp in data set [3] of 0.12.
